Test results reported in patent publication US11053242B2, “[9,10-dimethoxy-3-(2-methylpropyl)-1H,2H,3H,4H,6H,7H,11BH-pyrido-[2,1-a]isoquinolin-2-yl]methanol and compounds, compositions and methods relating thereto” (Neurocrine Biosciences, Inc., priority 2015, dated 2021).

Experiments:
[1] = biological target: VMAT2 (human platelet homogenate) (Homo sapiens (Human), UniProt Q05940); assay: Human VMAT2 Ki, slightly modified competition binding procedure (Table 11); conditions: 10 nM 3H-dihydrotetrabenazine;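 further: competition binding with 90 min incubation at 25 °C, after which filter-retained radioligand was measured by scintillation counting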
Chain of VMAT2 (human platelet homogenate) (Q05940 whole entry): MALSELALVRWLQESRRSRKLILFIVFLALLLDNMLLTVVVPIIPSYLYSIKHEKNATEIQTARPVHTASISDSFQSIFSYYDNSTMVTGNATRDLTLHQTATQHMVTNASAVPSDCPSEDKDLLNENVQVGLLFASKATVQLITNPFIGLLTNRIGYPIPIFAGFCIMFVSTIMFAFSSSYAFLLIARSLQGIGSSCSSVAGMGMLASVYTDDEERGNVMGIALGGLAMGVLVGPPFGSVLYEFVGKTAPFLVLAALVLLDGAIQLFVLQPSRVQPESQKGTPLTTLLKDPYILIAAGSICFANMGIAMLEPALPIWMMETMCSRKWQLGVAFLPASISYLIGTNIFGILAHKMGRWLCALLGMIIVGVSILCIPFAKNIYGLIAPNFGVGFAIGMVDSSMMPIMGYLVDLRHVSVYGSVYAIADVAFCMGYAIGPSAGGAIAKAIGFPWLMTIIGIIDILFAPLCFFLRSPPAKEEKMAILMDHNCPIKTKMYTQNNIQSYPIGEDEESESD
Experimental: Following incubation at 25° C. for 90 minutes, bound radioligand was collected by rapid filtration onto GF/B glass fiber filters using a Unifilter-96 Harvester (PerkinElmer). Filter plates were pre-treated with 0.1% polyethylenimine and allowed to dry overnight, and following harvesting the filter plates were washed with 800 d VMAT2 binding buffer. Bound radioligand was quantified by scintillation counting using a Topcount NXT (PerkinElmer).

[2] = In vitro human intestinal S9 hydrolysis assay (formation of compound 1-1); conditions: human intestinal S9, 1 uM, 37° C., up to 60 minutes

SMILES: COc1cc2c(cc1OC)[C@H]1C[C@@H](COC(=O)CC3CCN(C)C3)[C@H](CC(C)C)CN1CC2 (stereo partly drawn) [Compound 2-10, [(2R,3S,11bR)-9,10-dimethoxy-3-(2-methylpropyl)-1H,2H,3H,4H,6H,7H,11bH-pyrido[2,1-a]isoquinolin-2-yl]methyl 2-(1-methylpyrrolidin-3-yl)acetate]
- Ki [1]: < 10 nM
- S9 Assay (ability to form compound 1-1) [2]: +++

SMILES: COc1cc2c(cc1OC)[C@H]1C[C@@H](COC(=O)C3CCN(C)CC3)[C@H](CC(C)C)CN1CC2 [Compound 2-25, [(2R,3S,11bR)-9,10-dimethoxy-3-(2-methylpropyl)-1H,2H,3H,4H,6H,7H,11bH-pyrido[2,1-a]isoquinolin-2-yl]methyl 1-methylpiperidine-4-carboxylate]
- Ki [1]: < 10 nM
- S9 Assay (ability to form compound 1-1) [2]: +++

SMILES: COc1cc2c(cc1OC)[C@H]1C[C@@H](COC(=O)CC(C)(C)CC(=O)O)[C@H](CC(C)C)CN1CC2 [Compound 3-1, 5-{[(2R,3S,11bR)-9,10-dimethoxy-3-(2-methylpropyl)-1H,2H,3H,4H,6H,7H,11bH-pyrido[2,1-a]isoquinolin-2-yl]methoxy}-3,3-dimethyl-5-oxopentanoic acid]
- Ki [1]: > 500 nM
- S9 Assay (ability to form compound 1-1) [2]: +

SMILES: COc1cc2c(cc1OC)[C@H]1C[C@@H](COC(=O)CC(C)CC(=O)O)[C@H](CC(C)C)CN1CC2 (stereo partly drawn) [Compound 3-3, 5-{[(2R,3S,11bR)-9,10-dimethoxy-3-(2-methylpropyl)-1H,2H,3H,4H,6H,7H,11bH-pyrido[2,1-a]isoquinolin-2-yl]methoxy}-3-methyl-5-oxopentanoic acid]
- Ki [1]: 10 to 500 nM
- S9 Assay (ability to form compound 1-1) [2]: +++

SMILES: COc1cc2c(cc1OC)[C@H]1C[C@@H](COC(=O)C3CC3C(=O)O)[C@H](CC(C)C)CN1CC2 (stereo partly drawn) [Compound 3-4, 2-({[(2R,3S,11bR)-9,10-dimethoxy-3-(2-methylpropyl)-1H,2H,3H,4H,6H,7H,11bH-pyrido[2,1-a]isoquinolin-2-yl]methoxy}carbonyl)cyclopropane-1-carboxylic acid]
- Ki [1]: 10 to 500 nM
- S9 Assay (ability to form compound 1-1) [2]: ++

SMILES: COc1cc2c(cc1OC)[C@H]1C[C@@H](COC(=O)C3CCCCC3C(=O)O)[C@H](CC(C)C)CN1CC2 (stereo partly drawn) [Compound 3-6, 2-({[(2R,3S,11bR)-9,10-dimethoxy-3-(2-methylpropyl)-1H,2H,3H,4H,6H,7H,11bH-pyrido[2,1-a]isoquinolin-2-yl]methoxy}carbonyl)cyclohexane-1-carboxylic acid]
- Ki [1]: 10 to 500 nM
- S9 Assay (ability to form compound 1-1) [2]: ++

SMILES: COc1cc2c(cc1OC)[C@H]1CC(COC(=O)CC(C)(C)C(=O)O)[C@H](CC(C)C)CN1CC2 (stereo partly drawn) [Compound 3-7, 4-{[(3S,11bR)-9,10-dimethoxy-3-(2-methylpropyl)-1H,2H,3H,4H,6H,7H,11bH-pyrido[2,1-a]isoquinolin-2-yl]methoxy}-2,2-dimethyl-4-oxobutanoic acid]
- Ki [1]: 10 to 500 nM
- S9 Assay (ability to form compound 1-1) [2]: +

SMILES: COc1cc2c(cc1OC)[C@H]1C[C@@H](COC(=O)CCCC(=O)O)[C@H](CC(C)C)CN1CC2 [Compound 3-8, 5-{[(2R,3S,11bR)-9,10-dimethoxy-3-(2-methylpropyl)-1H,2H,3H,4H,6H,7H,11 bH-pyrido[2,1 a]isoquinolin-2-yl]methoxy}-5-oxopentanoic acid]
- Ki [1]: 10 to 500 nM
- S9 Assay (ability to form compound 1-1) [2]: +++

SMILES: COc1cc2c(cc1OC)[C@H]1C[C@@H](COC(=O)CC3(CC(=O)O)CCCC3)[C@H](CC(C)C)CN1CC2 [Compound 3-9]
- Ki [1]: 10 to 500 nM
- S9 Assay (ability to form compound 1-1) [2]: ++

SMILES: COc1cc2c(cc1OC)[C@H]1C[C@@H](COC(=O)CCCCC(=O)O)[C@H](CC(C)C)CN1CC2 [Compound 3-10]
- Ki [1]: > 500 nM
- S9 Assay (ability to form compound 1-1) [2]: +++

SMILES: COc1cc2c(cc1OC)[C@H]1C[C@@H](COC(=O)C(C)(C)CC(=O)O)[C@H](CC(C)C)CN1CC2 [Compound 3-11]
- Ki [1]: > 500 nM
- S9 Assay (ability to form compound 1-1) [2]: ++

SMILES: COc1cc2c(cc1OC)[C@H]1C[C@@H](COC(=O)CCC(C)(C)C(=O)O)[C@H](CC(C)C)CN1CC2 [Compound 3-12]
- Ki [1]: 10 to 500 nM
- S9 Assay (ability to form compound 1-1) [2]: +++

SMILES: COc1cc2c(cc1OC)[C@H]1C[C@@H](COC(=O)CCC(=O)O)[C@H](CC(C)C)CN1CC2 [Compound 3-13]
- Ki [1]: 10 to 500 nM
- S9 Assay (ability to form compound 1-1) [2]: ++

SMILES: COc1cc2c(cc1OC)[C@H]1C[C@@H](COC(=O)C3CCNCC3)[C@H](CC(C)C)CN1CC2 [Compound 4-1, [(2R,3S,11bR)-9,10-dimethoxy-3-(2-methylpropyl)-1H,2H,3H,4H,6H,7H,11bH-pyrido[2,1-a]isoquinolin-2-yl]methyl piperidine-4-carboxylate]
- Ki [1]: < 10 nM
- S9 Assay (ability to form compound 1-1) [2]: ++

SMILES: COc1cc2c(cc1OC)[C@H]1C[C@@H](COC(=O)N3CCNC[C@H]3C)[C@H](CC(C)C)CN1CC2 [Compound 6-3, [(2R,3S,11bR)-9,10-dimethoxy-3-(2-methylpropyl)-1H,2H,3H,4H,6H,7H,11bH-pyrido[2,1-a]isoquinolin-2-yl]methyl (2R)-2-methylpiperazine-1-carboxylate]
- S9 Assay (ability to form compound 1-1) [2]: +

SMILES: COc1cc2c(cc1OC)[C@H]1C[C@@H](COCCC3CCNCC3)[C@H](CC(C)C)CN1CC2 [Compound 10-1, 4-(2-{[(2R,3S,11bR)-9,10-dimethoxy-3-(2-methylpropyl)-1H,2H,3H,4H,6H,7H,11bH-pyrido[2,1-a]isoquinolin-2-yl]methoxy}ethyl)piperidine]
- Ki [1]: < 10 nM

SMILES: COc1cc2c(cc1OC)[C@H]1C[C@@H](COC[C@@H]3CCNC3)[C@H](CC(C)C)CN1CC2 [Compound 10-2, (3R)-3-({[(2R,3S,11bR)-9,10-dimethoxy-3-(2-methylpropyl)-1H,2H,3H,4H,6H,7H,11bH-pyrido[2,1-a]isoquinolin-2-yl]methoxy}methyl)pyrrolidine]
- Ki [1]: < 10 nM

SMILES: CCCCCCOCC1CC2c3cc(OC)c(OC)cc3CCN2CC1CC(C)C (stereo not drawn) [Compound 10-3, 2-[(hexyloxy)methyl]-9,10-dimethoxy-3-(2-methylpropyl)-1H,2H,3H,4H,6H,7H,11bH-pyrido[2,1-a]isoquinoline]
- Ki [1]: 10 to 500 nM

SMILES: COc1cc2c(cc1OC)[C@H]1C[C@@H](COC[C@@H]3CCCN3)[C@H](CC(C)C)CN1CC2 [Compound 10-4, (2S)-2-({[(2R,3S,11bR)-9,10-dimethoxy-3-(2-methylpropyl)-1H,2H,3H,4H,6H,7H,11bH-pyrido[2,1-a]isoquinolin-2-yl]methoxy}methyl)pyrrolidine]
- Ki [1]: < 10 nM

SMILES: COc1cc2c(cc1OC)[C@H]1C[C@@H](COCC3CCNCC3)[C@H](CC(C)C)CN1CC2 [Compound 10-5, 4-({[(2R,3S,11bR)-9,10-dimethoxy-3-(2-methylpropyl)-1H,2H,3H,4H,6H,7H,11bH-pyrido[2,1-a]isoquinolin-2-yl]methoxy}methyl)piperidine]
- Ki [1]: 10 to 500 nM

SMILES: COc1cc2c(cc1OC)[C@H]1C[C@@H](COCC3CCNC3)[C@H](CC(C)C)CN1CC2 (stereo partly drawn) [Compound 10-6, 3-({[(2R,3S,11bR)-9,10-dimethoxy-3-(2-methylpropyl)-1H,2H,3H,4H,6H,7H,11bH-pyrido[2,1-a]isoquinolin-2-yl]methoxy}methyl)pyrrolidine]
- Ki [1]: < 10 nM

SMILES: COc1cc2c(cc1OC)[C@H]1C[C@@H](COC[C@H]3CCCN3)[C@H](CC(C)C)CN1CC2 [Compound 10-7, (2R)-2-({[(2R,3S,11bR)-9,10-dimethoxy-3-(2-methylpropyl)-1H,2H,3H,4H,6H,7H,11bH-pyrido[2,1-a]isoquinolin-2-yl]methoxy}methyl)pyrrolidine]
- Ki [1]: < 10 nM
